Like-named read-outs stand apart in the source and are kept apart here.
Tested on: S. aureus Oxford, S. aureus WCUH29, S. aureus Carter 37, E. faecalis I, M. catarrhalis Ravasio, S. pneumoniae R6
Assay: MIC of test compounds against various organisms
Format: cell-based
Conditions: against one or more of S. aureus Oxford
Protocol: The MIC (μg/ml) of test compounds against various organisms was determined: S. aureus Oxford, S. aureus WCUH29, S. aureus Carter 37, E. faecalis I, M. catarrhalis Ravasio, S. pneumoniae R6.

Row | SMILES | MIC (read-out: MIC) | MIC
1 | COc1ccc2nccc([C@@H](O)CN3CCN(CCCOc4ccccc4)CC3)c2c1 [Example 33, 1-(3-phenoxypropyl)-4-[2-(R)-hydroxy-2-(6-methoxyquinolin-4-yl)ethyl]piperazine] | ≤ 16 µg/mL | –
2 | CCCCCCCN1CCN(C[C@H](O)c2ccnc3ccc(OC)cc23)[C@H](CC(=O)O)C1.O=C(O)C(F)(F)F.O=C(O)C(F)(F)F.O=C(O)C(F)(F)F [Example 11, [3R]-3-Carboxymethyl-1-heptyl-4-[2-(R)-hydroxy-2-(6-methoxyquinolin-4-yl)ethyl]piperazine tris(trifluoroacetate)] | ≤ 16 µg/mL | –
3 | CCCCCCCN1CCN(CC(O)c2ccnc3ccc(OC)cc23)[C@@H](CCO)C1.O=C(O)C(=O)O.O=C(O)C(=O)O (stereo partly drawn) [Example 12, [3S]-1-Heptyl-3-[2-hydroxyetbyl]-4-[2-(R,S)hydroxy-2-(6-methoxyquinolin-4-yl)ethyl]piperazine dioxalate] | – | less than or equal to 1 μg/ml

— patent US6911442B1, “Quinoline derivatives as antibacterials” (SmithKline Beecham p.l.c., priority 1999, dated 2005)
